Experiments:
Experiment in all cases: relative viability (nuclei count vs DMSO), 5 days (fraction); higher = more cells survive
LC-2-ad = system: LC-2-ad
Outline: (§1)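 Lung cancer cell lines in 1536-well plates were dosed by pin tool the day after seeding, either with one drug alone or with a fixed anchor-drug dose plus five library-drug doses (not always all listed) in √10 steps. After 5 days, cells were fixed and their nuclei stained in one step (final 0.05% Triton X-100, 1% formaldehyde, 1 ug/ml Hoechst), then counted on 4× images. Relative viability is the nuclei count in treated wells divided by that in vehicle wells. Values are medians of duplicate plates.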

COR-L23 = system: COR-L23
Outline: as §1

LU99A = system: LU99A
Outline: as §1

NCI-H2347 = system: NCI-H2347
Outline: as §1

NCI-H1651 = system: NCI-H1651
Outline: as §1

NCI-H1355 = system: NCI-H1355
Outline: as §1

EPLC-272H = system: EPLC-272H
Outline: as §1

UMC-11 = system: UMC-11
Outline: as §1

HARA = system: HARA
Outline: as §1

NCI-H2126 = system: NCI-H2126
Outline: as §1

NCI-H1993 = system: NCI-H1993
Outline: as §1

NCI-H650 = system: NCI-H650
Outline: as §1

HOP-62 = system: HOP-62
Outline: as §1

NCI-H1915 = system: NCI-H1915
Outline: as §1

PC-14 = system: PC-14
Outline: as §1

NCI-H838 = system: NCI-H838
Outline: as §1

ABC-1 = system: ABC-1
Outline: as §1

NCI-H2023 = system: NCI-H2023
Outline: as §1

HCC-15 = system: HCC-15
Outline: as §1

NCI-H2085 = system: NCI-H2085
Outline: as §1

SW 1573 = system: SW 1573
Outline: as §1

Cc1sc2c(c1C)C(c1ccc(Cl)cc1)=N[C@@H](CC(=O)OC(C)(C)C)c1nnc(C)n1-2 [JQ1] + Cc1nc(Nc2ncc(C(=O)Nc3c(C)cccc3Cl)s2)cc(N2CCN(CCO)CC2)n1 [Dasatinib] (partner 0.075 µM)
relative viability (LC-2-ad; first compound 0.04 µM): 0.505 | relative viability (LC-2-ad; first compound 0.1265 µM): 0.472 | relative viability (LC-2-ad; first compound 0.4 µM): 0.219 | relative viability (LC-2-ad; first compound 1.265 µM): 0.178 | relative viability (LC-2-ad; first compound 4 µM): 0.191 | relative viability (COR-L23; first compound 0.04 µM): 0.507 | relative viability (COR-L23; first compound 0.1265 µM): 0.351 | relative viability (COR-L23; first compound 0.4 µM): 0.516 | relative viability (COR-L23; first compound 1.265 µM): 0.279 | relative viability (COR-L23; first compound 4 µM): 0.256 | relative viability (LU99A; first compound 0.04 µM): 0.551 | relative viability (LU99A; first compound 0.1265 µM): 0.378 | relative viability (LU99A; first compound 0.4 µM): 0.603 | relative viability (LU99A; first compound 1.265 µM): 0.207 | relative viability (LU99A; first compound 4 µM): 0.206 | relative viability (NCI-H2347; first compound 0.04 µM): 0.273 | relative viability (NCI-H2347; first compound 0.1265 µM): 0.395 | relative viability (NCI-H2347; first compound 0.4 µM): 0.304 | relative viability (NCI-H2347; first compound 1.265 µM): 0.371 | relative viability (NCI-H2347; first compound 4 µM): 0.235 | relative viability (NCI-H1651; first compound 0.04 µM): 0.384 | relative viability (NCI-H1651; first compound 0.1265 µM): 0.292 | relative viability (NCI-H1651; first compound 0.4 µM): 0.306 | relative viability (NCI-H1651; first compound 1.265 µM): 0.246 | relative viability (NCI-H1651; first compound 4 µM): 0.221 | relative viability (NCI-H1355; first compound 0.04 µM): 0.774 | relative viability (NCI-H1355; first compound 0.1265 µM): 0.578 | relative viability (NCI-H1355; first compound 0.4 µM): 0.617 | relative viability (NCI-H1355; first compound 1.265 µM): 0.486 | relative viability (NCI-H1355; first compound 4 µM): 0.447 | relative viability (EPLC-272H; first compound 0.04 µM): 0.352 | relative viability (EPLC-272H; first compound 0.1265 µM): 0.382 | relative viability (EPLC-272H; first compound 0.4 µM): 0.358 | relative viability (EPLC-272H; first compound 1.265 µM): 0.175 | relative viability (EPLC-272H; first compound 4 µM): 0.204 | relative viability (UMC-11; first compound 0.04 µM): 0.501 | relative viability (UMC-11; first compound 0.1265 µM): 0.43 | relative viability (UMC-11; first compound 0.4 µM): 0.321 | relative viability (UMC-11; first compound 1.265 µM): 0.239 | relative viability (UMC-11; first compound 4 µM): 0.221 | relative viability (HARA; first compound 0.04 µM): 0.207 | relative viability (HARA; first compound 0.1265 µM): 0.242 | relative viability (HARA; first compound 0.4 µM): 0.309 | relative viability (HARA; first compound 1.265 µM): 0.236 | relative viability (HARA; first compound 4 µM): 0.247 | relative viability (NCI-H2126; first compound 0.04 µM): 0.651 | relative viability (NCI-H2126; first compound 0.1265 µM): 0.575 | relative viability (NCI-H2126; first compound 0.4 µM): 0.431 | relative viability (NCI-H2126; first compound 1.265 µM): 0.433 | relative viability (NCI-H2126; first compound 4 µM): 0.35 | relative viability (NCI-H1993; first compound 0.04 µM): 0.574 | relative viability (NCI-H1993; first compound 0.1265 µM): 0.798 | relative viability (NCI-H1993; first compound 0.4 µM): 0.597 | relative viability (NCI-H1993; first compound 1.265 µM): 0.532 | relative viability (NCI-H1993; first compound 4 µM): 1.44 | relative viability (NCI-H650; first compound 0.04 µM): 0.462 | relative viability (NCI-H650; first compound 0.1265 µM): 0.301 | relative viability (NCI-H650; first compound 0.4 µM): 0.328 | relative viability (NCI-H650; first compound 1.265 µM): 0.277 | relative viability (NCI-H650; first compound 4 µM): 0.244 | relative viability (HOP-62; first compound 0.04 µM): 0.559 | relative viability (HOP-62; first compound 0.1265 µM): 0.31 | relative viability (HOP-62; first compound 0.4 µM): 0.355 | relative viability (HOP-62; first compound 1.265 µM): 0.158 | relative viability (HOP-62; first compound 4 µM): 0.116 | relative viability (NCI-H1915; first compound 0.04 µM): 0.281 | relative viability (NCI-H1915; first compound 0.1265 µM): 0.303 | relative viability (NCI-H1915; first compound 0.4 µM): 0.317 | relative viability (NCI-H1915; first compound 1.265 µM): 0.249 | relative viability (NCI-H1915; first compound 4 µM): 0.191 | relative viability (PC-14; first compound 0.04 µM): 0.283 | relative viability (PC-14; first compound 0.1265 µM): 0.187 | relative viability (PC-14; first compound 0.4 µM): 0.119 | relative viability (PC-14; first compound 1.265 µM): 0.14 | relative viability (PC-14; first compound 4 µM): 0.05 | relative viability (NCI-H838; first compound 0.04 µM): 0.294 | relative viability (NCI-H838; first compound 0.1265 µM): 0.217 | relative viability (NCI-H838; first compound 0.4 µM): 0.264 | relative viability (NCI-H838; first compound 1.265 µM): 0.229 | relative viability (NCI-H838; first compound 4 µM): 0.201 | relative viability (ABC-1; first compound 0.04 µM): 0.583 | relative viability (ABC-1; first compound 0.1265 µM): 0.413 | relative viability (ABC-1; first compound 0.4 µM): 0.417 | relative viability (ABC-1; first compound 1.265 µM): 0.429 | relative viability (ABC-1; first compound 4 µM): 0.333 | relative viability (NCI-H2023; first compound 0.04 µM): 0.5 | relative viability (NCI-H2023; first compound 0.1265 µM): 0.339 | relative viability (NCI-H2023; first compound 0.4 µM): 0.272 | relative viability (NCI-H2023; first compound 1.265 µM): 0.178 | relative viability (NCI-H2023; first compound 4 µM): 0.15 | relative viability (HCC-15; first compound 0.04 µM): 0.524 | relative viability (HCC-15; first compound 0.4 µM): 0.5 | relative viability (HCC-15; first compound 1.265 µM): 0.339 | relative viability (HCC-15; first compound 4 µM): 0.227 | relative viability (NCI-H2085; first compound 0.04 µM): 0.257 | relative viability (NCI-H2085; first compound 0.1265 µM): 0.275 | relative viability (NCI-H2085; first compound 0.4 µM): 0.189 | relative viability (NCI-H2085; first compound 1.265 µM): 0.223 | relative viability (NCI-H2085; first compound 4 µM): 0.176 | relative viability (SW 1573; first compound 0.04 µM): 0.486 | relative viability (SW 1573; first compound 0.1265 µM): 0.447 | relative viability (SW 1573; first compound 0.4 µM): 0.31 | relative viability (SW 1573; first compound 1.265 µM): 0.218 | relative viability (SW 1573; first compound 4 µM): 0.23

From the supplement of paper PMC10307832
